Measurements: patent US20210130312A1, “INHIBITORS OF EYA3-PROTEIN TYROSINE PHOSPHATASE IN DNA DAMAGE REPAIR SIGNALING OF PULMONARY ARTERIAL HYPERTENSION” (CHILDREN'S HOSPITAL MEDICAL CENTER, priority 2018, published 2021)

Key:
[1] = system: Sugen-Hypoxia (SuHx) rat model; assay: Sugen-Hypoxia (SuHx) rat model of PAH: RVSP by right heart catheterization, Fulton's index, PV remodeling; type: in vivo
Protocol: Sugen-Hypoxia (SuHx) rat model was used where a single administration of the VEGF inhibitor SU-5416 is followed by 3 weeks of hypoxia (10% O2) and PAH develops between 3-5 weeks after rats (adult Sprague-Daley males) are returned to room air. To test the effect of EYA-PTP inhibition on the development of PAH, benzarone (BZ) was administered every 3 days for 5 weeks after return to room air. The rats were maintained for a further 3 weeks in room air and then right ventricular systolic pressure (RVSP) measured by right heart catheterization. The increase in RVSP in BZ-treated rats was 32% less in BZ-treated rats than in vehicle-treated rats. Fulton's index (right ventricle/left ventricle plus septum weight) was also lower (by 28% relative to vehicle-treated controls) in BZ-treated animals indicating reduced RV hypertrophy.

[2] = system: γ-H2AX and 53BP1 foci in PASMC; assay: γ-H2AX and 53BP1 staining (DDR) in lungs from rats subject to the SuHx protocol; type: in vivo, rat; settings: lungs of SuHx rats treated with EYA-PTP inhibitor
Description: γ-H2AX foci report on the existence of DSBs, and the assembly of functional DDR complexes is characterized by the presence of 53BP1 foci. Rats subject to the SuHx protocol show increased γ-H2AX and 53BP1 staining in both PAEC and PASMC, likely as a result of oxidative stress. Rats treated with EYA-PTP inhibitor BZ had reduced γ-H2AX staining, as well as reduced 53BP1 foci formation in PASMC.

[3] = rat SuHx model of PH, statement in words

CCc1oc2ccccc2c1C(=O)c1ccc(O)cc1 [BZ, benzarone]
increase in RVSP, less than in vehicle-treated rats ([1]; SuHx rats, administered every 3 days for 5 weeks after return to room air, measured after a further 3 weeks in room air): 32%
Fulton's index (right ventricle/left ventricle plus septum weight), lower relative to vehicle-treated controls ([1]; SuHx rats, same regimen, indicates reduced RV hypertrophy): 28%
PV remodeling [1, 3]: effectively reduces
RVSP [1, 3]: effectively reduces
53BP1 foci formation in PASMC [2]: reduced
γ-H2AX staining [2]: reduced
